From patent publication US20230255864A1, “NOVEL COMPOSITIONS COMBINING HEMP DERIVATIVES AND AT LEAST ONE PEPTIDE AND USE THEREOF” (FRANCE COSMEPHYL-LAB, priority 2020, published 2023)
Several values for one entry are separate records, joined by “and”; a condition that tells them apart may be missing. Identical values can stand only once. Like-named read-outs stand apart in the source and are kept apart here.

How the values were obtained:
[1] = Cell viability of murine macrophages (WST-1 mitochondrial respiration), in parallel with NO release; type: cell-based; settings: mouse, read-out: Cell viability (% as compared to the negative control)
Procedure: (§1) MURINS RAW 267.4 Macrophage cell line (Sigma-Aldrich, No. P6110401, Lot. 091006), low number of passages (less than 50).
(§2) Complete medium: DMEM with stabilized L-glutamine (Dulbecco's Minimum Essential Medium, PAN BIOTECH. Lot 974251) supplemented with Penicillin 100 IU/ml and streptomycin 100 μg/m1 (PAN BIOTECH, Lot 225614), and 10% inactivated calf serum (PAN BIOTECH, Lot P460518), pH 7.2, freshly prepared, stored for less than 3 weeks.
(§3) Cannabidiol (CBD) is diluted in DMSO (10 mg/mL storage solution), and subjected to an ultrasonic bath for 20 minutes. The Neutrazen™ solution is diluted in PBS (Phosphate buffer saline, Sigma-Aldrich).
(§4) RAW 267.4 murine macrophages were inoculated into 48-well tissue culture plates at a concentration of 1.10^5 cells/ml (200 μl/well) and incubated for 24 hours at 37° C. (5% CO2).
(§5) At the end of the incubation period, the culture medium was replaced with 200 μl of medium containing the appropriate concentrations of the material to be tested, and the cells were incubated at 37° C. (5% CO2) for one hour.
(§6) At the end of the incubation period, pro-inflammatory E. coli LPS was added to the cell cultures (1 μg/ml. Then the cells were incubated at 37° C. (5% CO2) for 24 hours.
(§7) In parallel with the evaluation of the release of NO, the cell viability was measured to validate the tests. Vital Stain Reagent WST-1 was used to measure cellular mitochondrial respiration. For this, the culture medium was decanted and 100 μl of WST-1 reagent ( 1/10 dilution) were added to each well. After an incubation period of 30 min at 37° C. (5% CO2), the Optical Density (OD) of each well was read at a wavelength of 450 nm by an Infinite M200 Pro fluorescence-luminescence reader (TECAN). The results obtained for the wells treated with the test material were compared with those of the untreated control wells (DMSO, 100% viability) and converted into percentage values.
(§8) Inhibition of NO release and inhibition of cell viability were expressed as a percentage relative to the negative controls: […]
(§9) The concentrations of test material causing a 50% decrease in NO release (IC50 (NO release)) and a 50% decrease in cell viability (IC50 (cell viability)) respectively were calculated using TableCurve software Version 2.0.
(§10) Analysis of the anti-inflammatory activity and of the cell viability of the cannabidiol/palmitoyl tripeptide-8 (Neutrazen™) association in a mixture by isobologram analysis. For each concentration of Neutrazen™ (0.01, 0.025, 0.05 and 0.1%), different concentrations of CBD are tested (0.01, 0.025, 0.05, 0.1, 0.25, 0.5, 1 and 2.5%) to determine both the production of NO and cell viability.
(§11) The results obtained with the different mixtures of CBD and Neutrazen™ made it possible to calculate the pairs of concentrations corresponding to a 50% reduction in the production of NO and a 50% reduction in cell viability.

[2] = system: RAW 267.4 murine macrophages; assay: as above; type: cell-based
Procedure: as §1, §2, §3, §4, §5, §6, §7, §8, §9, §10, §11

C=C(C)[C@@H]1CCC(C)=C[C@H]1c1c(O)cc(CCCCC)cc1O [CBD]
viability at 25 h, 0.01 weight % ([1]; pH 7.2, CBD 0.01 weight % in mixture with NeutraZen 0.01%): 98.6%
viability at 25 h, 0.01 weight % ([1]; pH 7.2, CBD 0.01 weight % in mixture with NeutraZen 0.025%): 102%
viability at 25 h, 0.01 weight % ([1]; pH 7.2, CBD 0.01 weight % in mixture with NeutraZen 0.05%): 98%
viability at 25 h, 0.01 weight % ([1]; pH 7.2, CBD 0.01 weight % in mixture with NeutraZen 0.1%): 101%
viability at 25 h, 0.025 weight % ([1]; pH 7.2, CBD 0.025 weight % in mixture with NeutraZen 0.01%): 99.7%
viability at 25 h, 0.025 weight % ([1]; pH 7.2, CBD 0.025 weight % in mixture with NeutraZen 0.025%): 104%
viability at 25 h, 0.025 weight % ([1]; pH 7.2, CBD 0.025 weight % in mixture with NeutraZen 0.05%): 99.1%
viability at 25 h, 0.025 weight % ([1]; pH 7.2, CBD 0.025 weight % in mixture with NeutraZen 0.1%): 99.7%
viability at 25 h, 0.05 weight % ([1]; pH 7.2, CBD 0.05 weight % in mixture with NeutraZen 0.01%): 97.7%
viability at 25 h, 0.05 weight % ([1]; pH 7.2, CBD 0.05 weight % in mixture with NeutraZen 0.025%): 96.2%
viability at 25 h, 0.05 weight % ([1]; pH 7.2, CBD 0.05 weight % in mixture with NeutraZen 0.05%): 101%
viability at 25 h, 0.05 weight % ([1]; pH 7.2, CBD 0.05 weight % in mixture with NeutraZen 0.1%): 103%
viability at 25 h, 0.1 weight % ([1]; pH 7.2, CBD 0.1 weight % in mixture with NeutraZen 0.01%): 102%
viability at 25 h, 0.1 weight % ([1]; pH 7.2, CBD 0.1 weight % in mixture with NeutraZen 0.025%): 100%
viability at 25 h, 0.1 weight % ([1]; pH 7.2, CBD 0.1 weight % in mixture with NeutraZen 0.05%): 100%
viability at 25 h, 0.1 weight % ([1]; pH 7.2, CBD 0.1 weight % in mixture with NeutraZen 0.1%): 97.1%
viability at 25 h, 0.25 weight % ([1]; pH 7.2, CBD 0.25 weight % in mixture with NeutraZen 0.01%): 92.2%
viability at 25 h, 0.25 weight % ([1]; pH 7.2, CBD 0.25 weight % in mixture with NeutraZen 0.025%): 88.5%
viability at 25 h, 0.25 weight % ([1]; pH 7.2, CBD 0.25 weight % in mixture with NeutraZen 0.05%): 98.6%
viability at 25 h, 0.25 weight % ([1]; pH 7.2, CBD 0.25 weight % in mixture with NeutraZen 0.1%): 95.7%
viability at 25 h, 0.5 weight % ([1]; pH 7.2, CBD 0.5 weight % in mixture with NeutraZen 0.01%): 6.34%
viability at 25 h, 0.5 weight % ([1]; pH 7.2, CBD 0.5 weight % in mixture with NeutraZen 0.025%): 6.95%
viability at 25 h, 0.5 weight % ([1]; pH 7.2, CBD 0.5 weight % in mixture with NeutraZen 0.05%): 7.76%
viability at 25 h, 0.5 weight % ([1]; pH 7.2, CBD 0.5 weight % in mixture with NeutraZen 0.1%): 8.56%
viability at 25 h, 1 weight % ([1]; pH 7.2, CBD 1 weight % in mixture with NeutraZen 0.01%): 5.66%
viability at 25 h, 1 weight % ([1]; pH 7.2, CBD 1 weight % in mixture with NeutraZen 0.025%): 5.19%
viability at 25 h, 1 weight % ([1]; pH 7.2, CBD 1 weight % in mixture with NeutraZen 0.05%): 7.74%
viability at 25 h, 1 weight % ([1]; pH 7.2, CBD 1 weight % in mixture with NeutraZen 0.1%): 8.58%
viability at 25 h, 2.5 weight % ([1]; pH 7.2, CBD 2.5 weight % in mixture with NeutraZen 0.01%): 7.21%
viability at 25 h, 2.5 weight % ([1]; pH 7.2, CBD 2.5 weight % in mixture with NeutraZen 0.025%): 4.12%
viability at 25 h, 2.5 weight % ([1]; pH 7.2, CBD 2.5 weight % in mixture with NeutraZen 0.05%): 8.14%
viability at 25 h, 2.5 weight % ([1]; pH 7.2, CBD 2.5 weight % in mixture with NeutraZen 0.1%): 8.93%
viability at 25 h, 0.01 weight % ([1]; pH 7.2, sample alone at 0.01 weight %): 99.4%
viability at 25 h, 0.025 weight % ([1]; pH 7.2, sample alone at 0.025 weight %): 98.3%
viability at 25 h, 0.05 weight % ([1]; pH 7.2, sample alone at 0.05 weight %): 97.9%
viability at 25 h, 0.1 weight % ([1]; pH 7.2, sample alone at 0.1 weight %): 53.1%
viability at 25 h, 0.25 weight % ([1]; pH 7.2, sample alone at 0.25 weight %): 8.24%
viability at 25 h, 0.5 weight % ([1]; pH 7.2, sample alone at 0.5 weight %): 4.73%
viability at 25 h, 1 weight % ([1]; pH 7.2, sample alone at 1 weight %): 2.9%
Cell viability (% as compared to the negative control) ([2]; CBD 0.01 weight % in mixture with NeutraZen 0.01%): 99.54% and 101.55%
Cell viability (% as compared to the negative control) ([2]; CBD 0.01 weight % in mixture with NeutraZen 0.025%): 101.86%
Cell viability (% as compared to the negative control) ([2]; CBD 0.01 weight % in mixture with NeutraZen 0.05%): 101.83% and 101.55%
Cell viability (% as compared to the negative control) ([2]; CBD 0.01 weight % in mixture with NeutraZen 0.1%): 100.00%
Cell viability (% as compared to the negative control) ([2]; CBD 0.025 weight % in mixture with NeutraZen 0.01%): 99.24% and 100.77%
Cell viability (% as compared to the negative control) ([2]; CBD 0.025 weight % in mixture with NeutraZen 0.025%): 100.76% and 101.08%
Cell viability (% as compared to the negative control) ([2]; CBD 0.025 weight % in mixture with NeutraZen 0.05%): 101.22% and 100.77%
Cell viability (% as compared to the negative control) ([2]; CBD 0.025 weight % in mixture with NeutraZen 0.1%): 100.15%
Cell viability (% as compared to the negative control) ([2]; CBD 0.05 weight % in mixture with NeutraZen 0.01%): 98.93% and 100.62%
Cell viability (% as compared to the negative control) ([2]; CBD 0.05 weight % in mixture with NeutraZen 0.025%): 96.18% and 100.31%
Cell viability (% as compared to the negative control) ([2]; CBD 0.05 weight % in mixture with NeutraZen 0.05%): 100.61% and 100.62%
Cell viability (% as compared to the negative control) ([2]; CBD 0.05 weight % in mixture with NeutraZen 0.1%): 99.54% and 100.00%
Cell viability (% as compared to the negative control) ([2]; CBD 0.1 weight % in mixture with NeutraZen 0.01%): 100.00% and 102.63%
Cell viability (% as compared to the negative control) ([2]; CBD 0.1 weight % in mixture with NeutraZen 0.025%): 96.34% and 99.23%
Cell viability (% as compared to the negative control) ([2]; CBD 0.1 weight % in mixture with NeutraZen 0.05%): 100.00%
Cell viability (% as compared to the negative control) ([2]; CBD 0.1 weight % in mixture with NeutraZen 0.1%): 99.54%
Cell viability (% as compared to the negative control) ([2]; CBD 0.25 weight % in mixture with NeutraZen 0.01%): 89.77% and 93.81%
Cell viability (% as compared to the negative control) ([2]; CBD 0.25 weight % in mixture with NeutraZen 0.025%): 88.09% and 89.16%
Cell viability (% as compared to the negative control) ([2]; CBD 0.25 weight % in mixture with NeutraZen 0.05%): 100.31%
Cell viability (% as compared to the negative control) ([2]; CBD 0.25 weight % in mixture with NeutraZen 0.1%): 97.40% and 98.61%
Cell viability (% as compared to the negative control) ([2]; CBD 0.5 weight % in mixture with NeutraZen 0.01%): 7.18% and 6.81%
Cell viability (% as compared to the negative control) ([2]; CBD 0.5 weight % in mixture with NeutraZen 0.025%): 7.33% and 7.43%
Cell viability (% as compared to the negative control) ([2]; CBD 0.5 weight % in mixture with NeutraZen 0.05%): 9.16% and 7.59%
Cell viability (% as compared to the negative control) ([2]; CBD 0.5 weight % in mixture with NeutraZen 0.1%): 9.47% and 8.20%
Cell viability (% as compared to the negative control) ([2]; CBD 1 weight % in mixture with NeutraZen 0.01%): 5.95% and 5.57%
Cell viability (% as compared to the negative control) ([2]; CBD 1 weight % in mixture with NeutraZen 0.025%): 5.34% and 4.95%
Cell viability (% as compared to the negative control) ([2]; CBD 1 weight % in mixture with NeutraZen 0.05%): 7.43%
Cell viability (% as compared to the negative control) ([2]; CBD 1 weight % in mixture with NeutraZen 0.1%): 8.40% and 7.59%
Cell viability (% as compared to the negative control) ([2]; CBD 2.5 weight % in mixture with NeutraZen 0.01%): 5.65% and 4.33%
Cell viability (% as compared to the negative control) ([2]; CBD 2.5 weight % in mixture with NeutraZen 0.025%): 4.49%
Cell viability (% as compared to the negative control) ([2]; CBD 2.5 weight % in mixture with NeutraZen 0.05%): 7.79% and 6.97%
Cell viability (% as compared to the negative control) ([2]; CBD 2.5 weight % in mixture with NeutraZen 0.1%): 7.63% and 6.35%
Cell viability (% as compared to the negative control) ([2]; sample alone at 0.01 weight %): 99.69% and 100.15%
Cell viability (% as compared to the negative control) ([2]; sample alone at 0.025 weight %): 99.85% and 99.23%
Cell viability (% as compared to the negative control) ([2]; sample alone at 0.05 weight %): 94.50% and 93.81%
Cell viability (% as compared to the negative control) ([2]; sample alone at 0.1 weight %): 51.15% and 55.11%
Cell viability (% as compared to the negative control) ([2]; sample alone at 0.25 weight %): 5.65% and 5.73%
Cell viability (% as compared to the negative control) ([2]; sample alone at 0.5 weight %): 3.97% and 3.25%
Cell viability (% as compared to the negative control) ([2]; sample alone at 1 weight %): 1.98% and 1.86%
Cell viability (% as compared to the negative control) ([2]; sample alone at 2.5 weight %): 1.98% and 2.14% and 0.46%
